Measured values from BindingDB's records for doi:10.7270/Q2183BCW (D3R/Abbott, 2020).

What follows are molecules tested against Cathepsin S (Homo sapiens, UniProt P25774) (assay: D3R2024).
Chain of Cathepsin S (P25774 whole entry): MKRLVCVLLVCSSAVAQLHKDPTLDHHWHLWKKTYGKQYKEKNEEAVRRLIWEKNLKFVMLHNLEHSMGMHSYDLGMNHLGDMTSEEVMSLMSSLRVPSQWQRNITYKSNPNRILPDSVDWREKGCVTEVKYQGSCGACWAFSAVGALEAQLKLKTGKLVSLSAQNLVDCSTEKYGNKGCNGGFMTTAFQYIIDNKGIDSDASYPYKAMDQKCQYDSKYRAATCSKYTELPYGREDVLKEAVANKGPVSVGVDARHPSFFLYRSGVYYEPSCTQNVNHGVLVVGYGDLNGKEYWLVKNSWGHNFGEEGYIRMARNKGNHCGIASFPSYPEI
Text: D3R2024
COC(=O)c1cccc(NC(=O)NC2CCN(c3ccnc(Nc4cc(OC)c(OC)c(OC)c4)n3)C2)c1 (configuration not stated) [D3RKN_99] showed an IC50 of 0.34 µM. N#Cc1cccc(C(=O)NC2CCN(c3ccnc(Nc4ccc(F)cc4)n3)C2)c1 (configuration not stated) [D3RKN_100] gave an IC50 of 5.8 µM. In the case of COc1cc(Nc2nccc(N3CCC(NC(=O)Nc4cc(C)ccc4C)C3)n2)cc(OC)c1OC (configuration not stated) [D3RKN_101], the IC50 is reported as 10 µM. CCCc1ccc(S(=O)(=O)NC2CCN(c3ccnc(Nc4ccc(OC)cc4)n3)C2)cc1 (configuration not stated) [D3RKN_102] showed an IC50 of 0.68 µM. COc1ccc(Nc2nccc(N3CCC(NS(=O)(=O)c4ccc(NC(C)=O)cc4)C3)n2)cc1 (configuration not stated) [D3RKN_103] showed an IC50 of 0.053 µM. For COc1cc(Nc2nccc(N3CCC(NC(=O)c4cc5ccccc5s4)C3)n2)cc(OC)c1OC (configuration not stated) [D3RKN_104], the IC50 was 0.71 µM. With COc1cc(Nc2nccc(N3CCC(NC(=O)c4cccc(C#N)c4)C3)n2)cc(OC)c1OC (configuration not stated) [D3RKN_105] the IC50 was 0.18 µM. COC(=O)C(NC(=O)NC1CCN(c2ccnc(Nc3ccc(F)cc3)n2)C1)c1ccccc1 (configuration not stated) [D3RKN_106] showed an IC50 of 7.8 µM. Work on Cc1ccc(C)c(NC(=O)NC2CCN(c3ccnc(Nc4ccc(F)cc4)n3)C2)c1 (configuration not stated) [D3RKN_108] yielded an IC50 of 10 µM. Work on COC(=O)C(Cc1ccccc1)NC(=O)NC1CCN(c2ccnc(Nc3ccc(F)cc3)n2)C1 (configuration not stated) [D3RKN_109] yielded an IC50 of 1.9 µM. O=C(NC1CCN(c2ccnc(Nc3ccc(F)cc3)n2)C1)c1cc2ccccc2s1 (configuration not stated) [D3RKN_110] gave an IC50 of 10 µM. COc1ccc(Nc2nccc(N3CCC(NC(=O)c4cccc(NC(C)=O)c4)C3)n2)cc1 (configuration not stated) [D3RKN_111] gave an IC50 of 2.4 µM. For COc1ccc(Nc2nccc(N3CCC(NC(=O)c4cccc(C#N)c4)C3)n2)cc1 (configuration not stated) [D3RKN_112], the IC50 was 4.7 µM. COC(=O)c1cccc(NC(=O)NC2CCN(c3ccnc(Nc4ccc(OC)cc4)n3)C2)c1 (configuration not stated) [D3RKN_113] showed an IC50 of 10 µM. For COc1cc(Nc2nccc(N3CCC(NC(=O)c4cccc(NC(C)=O)c4)C3)n2)cc(OC)c1OC (configuration not stated) [D3RKN_114], the IC50 was 0.054 µM. COc1ccc(Nc2nccc(N3CCC(NC(=O)Nc4cc(C)ccc4C)C3)n2)cc1 (configuration not stated) [D3RKN_115] was tested, and the IC50 was 10 µM. In the case of COC(=O)c1cccc(NC(=O)NC2CCN(c3ccnc(Nc4ccc(F)cc4)n3)C2)c1 (configuration not stated) [TCMDC-133606], the IC50 is reported as 10 µM.
